Test results published in US10132795B2, “Method for evaluating or selecting agent for suppressing GIP level elevation” (Kao Corporation, priority 2014, dated 2018).

Assays:
[1] = tested on: primary culture cells of the small intestine; test: FABP4/5 inhibition test: lipid micelle (PPM)-stimulated GIP secretion in primary culture cells of the small intestine; type: cell-based, C57BL/6J mice; details: inhibitor 10 or 25 μM, 30 min pre-incubation and 30 min PPM stimulation; compared to PPM group; FIG. 3
Description: C57BL/6J mice, 13 to 17 weeks old, were euthanized by cervical dislocation under anesthesia. The upper part of the small intestine (up to 10 cm immediately below the pylorus) was taken out and immersed in ice-cooled L-15 media (Sigma-Aldrich Co. LLC.). The small intestine was then transferred to ice-cooled PBS. Fat, blood vessels, etc. adhering to the intestinal tract were carefully removed. The inside of the lumen was washed with ice-cooled PBS and the tissue was cut into small pieces (pieces having an area of 2 mm^2 or smaller) with a scalpel. The small pieces were washed three to four times with PBS, to which 10 mL of DMEM (Sigma-Aldrich Co. LLC.) having Collagenase XI (Sigma-Aldrich Co. LLC.; 0.4 mg/mL) dissolved therein was added, followed by vigorous shaking for 10 seconds and then incubation at 37° C. for five minutes. The supernatants were then removed and 10 mL of the Collagenase solution was added again, followed by vigorous shaking for 10 seconds and then incubation at 37° C. for five minutes. […]
The media thus collected were centrifuged at 8,000 rpm, 4° C. for five minutes to obtain supernatants (secretion samples). […] GIP was quantitated in these samples with a GIP ELISA kit (for rat/mouse) (Merck Millipore Corporation) to obtain GIP secretion rates.

[2] = tested on: blood GIP and triglyceride (TG) concentrations; test: Single-dose administration test in mice (lipid emulsion load after FABP4/5 inhibitor); type: in vivo, mice (C57BL/6J); details: 30 mg/kg body weight intragastric
Description: Mice (C57BL/6J, male, 9 weeks old, n=4 to 5, CLEA Japan, Inc.) were fasted for 18 hours and then given intragastric administration of the FABP4/5 inhibitor BMS309403 (30 mg/kg body weight) in a solvent (10% 1-methyl-2-pyrrolione, 5% cremophor, and 2% ethanol) or only the solvent (control) through feeding needles under anesthesia. After 30 minutes, intragastric administration of lipid emulsions (triolein; 2 mg/kg body weight) was given. Blood was collected from the orbital sinus before and 10, 30, and 60 minutes after the administration of lipid emulsions. The blood thus collected was centrifuged at 11,000 rpm, 4° C. for 10 minutes to prepare the plasma. The blood GIP and triglyceride (TG) concentrations were measured with a GIP ELISA kit (for rat/mouse) (Merck Millipore Corporation) and a triglyceride E-test Wako (Wako Pure Chemical Industries, Ltd.), respectively.

[3] = tested on: mouse model of type-II diabetes or arteriosclerosis; details: oral administration; Non Patent Literature 18; cited from earlier work
[4] = 30 min before lipid emulsion, compared to control group, FIG. 2B
[5] = 30 min before triolein lipid emulsion, blood at 10, 30, 60 min, compared to control (solvent) group, FIG. 2A

With `CCc1c(-c2ccccc2)c(-c2ccccc2)nn1-c1ccccc1-c1cccc(OCC(=O)O)c1` [BMS309403] the “increase in the GIP secretion rate of PPM-stimulated cells” value [1] was “dose-dependently suppressed”, the “Cmax of the blood GIP concentration” value [2, 4] was “statistically significantly reduced” and the “iAUC (0-1 h) of the blood GIP concentration” value [2, 4] was “statistically significantly reduced”. For the same compound, the “increase in the blood GIP concentration (ΔGIP) after the administration of lipid emulsions” value [2, 5] was “statistically significantly reduced”, the “increase in the blood TG concentration (ΔTG) after the administration of lipid emulsions” value [2, 5] was “statistically significantly reduced” and the “pathological condition in mouse model of type-II diabetes or arteriosclerosis” value [3] was “Amelioration in the pathological condition”.
